According to the NIST ThermoML archive (doi:10.1021/je300628e):
Numbers after ± are expanded uncertainties.

How the values were obtained:
[1] = 101 kPa, Liquid; for viscosity: Concentric cylinders viscometry; for mass density: Vibrating tube method
[2] = wn = mass fraction of the nth substance listed; conditions: 101 kPa, Liquid; for viscosity: Concentric cylinders viscometry; for mass density: Vibrating tube method

| Structure (SMILES) | viscosity ([1]; 303.15 K) [mPa·s] | mass density ([1]; 303.15 K) [kg/m3] | viscosity ([1]; 313.15 K) [mPa·s] | mass density ([1]; 313.15 K) [kg/m3] | viscosity ([1]; 333.15 K) [mPa·s] | mass density ([1]; 333.15 K) [kg/m3] | viscosity ([1]; 353.15 K) [mPa·s] | mass density ([1]; 353.15 K) [kg/m3] | viscosity ([1]; 363.15 K) [mPa·s] | mass density ([1]; 363.15 K) [kg/m3] | other results |
| --- | --- | --- | --- | --- | --- | --- | --- | --- | --- | --- | --- |
| CCCCn1cc[n+](C)c1.N#CN=C=[N-] [1-butyl-3-methylimidazolium dicyanamide] | 23.92 ± 0.27 | 1055.1 ± 1 | 17.12 ± 0.2 | 1049.3 ± 0.9 | 10.49 ± 0.15 | 1037.1 ± 0.9 | 6.773 ± 0.12 | 1024.2 ± 0.9 | 5.523 ± 0.12 | 1019.3 ± 0.9 |  |
| CCn1cc[n+](C)c1.O=S(=O)([O-])C(F)(F)F [1-ethyl-3-methylimidazolium trifluoromethanesulfonate] | 36.14 ± 0.39 | 1381.8 ± 1.7 | 26.65 ± 0.3 | 1371.7 ± 1.7 | 16.45 ± 0.2 | 1350.9 ± 1.6 | 12.17 ± 0.16 | 1338.7 ± 1.6 | 11.14 ± 0.15 | 1326 ± 1.6 |  |
| CN(CCO)CCO [N-methyldiethanolamine] + O |  |  |  |  |  |  |  |  |  |  | viscosity ([2]; 303.15 K, w1 = 0.234): 2.285 ± 0.1 mPa·s; viscosity ([2]; 303.15 K, w1 = 0.459): 2.85 ± 0.33 mPa·s; mass density ([2]; 303.15 K, w1 = 0.234): 1018.7 ± 6 kg/m3; mass density ([2]; 303.15 K, w1 = 0.459): 1018.3 ± 6 kg/m3; viscosity ([2]; 313.15 K, w1 = 0.234): 1.612 ± 0.1 mPa·s; viscosity ([2]; 313.15 K, w1 = 0.459): 2.238 ± 0.23 mPa·s; mass density ([2]; 313.15 K, w1 = 0.234): 1014.1 ± 6 kg/m3; mass density ([2]; 313.15 K, w1 = 0.459): 1011 ± 6 kg/m3; viscosity ([2]; 333.15 K, w1 = 0.234): 1.418 ± 0.1 mPa·s; viscosity ([2]; 333.15 K, w1 = 0.459): 1.621 ± 0.13 mPa·s; mass density ([2]; 333.15 K, w1 = 0.234): 1003 ± 6 kg/m3; mass density ([2]; 333.15 K, w1 = 0.459): 1005.2 ± 6 kg/m3; viscosity ([2]; 353.15 K, w1 = 0.234): 1.121 ± 0.1 mPa·s; viscosity ([2]; 353.15 K, w1 = 0.459): 1.485 ± 0.11 mPa·s; mass density ([2]; 353.15 K, w1 = 0.234): 987.2 ± 6 kg/m3; mass density ([2]; 353.15 K, w1 = 0.459): 989.6 ± 6 kg/m3; viscosity ([2]; 363.15 K, w1 = 0.234): 1.112 ± 0.1 mPa·s; viscosity ([2]; 363.15 K, w1 = 0.459): 1.337 ± 0.1 mPa·s; mass density ([2]; 363.15 K, w1 = 0.234): 981.3 ± 6 kg/m3; mass density ([2]; 363.15 K, w1 = 0.459): 971.8 ± 6 kg/m3 |
| CN(CCO)CCO [N-methyldiethanolamine] | 58.62 ± 0.47 | 1034.7 ± 0.5 | 37.68 ± 0.32 | 1027.1 ± 0.5 | 15.26 ± 0.16 | 1013 ± 0.5 | 6.756 ± 0.11 | 996.3 ± 0.5 | 4.539 ± 0.11 | 993.9 ± 0.5 |  |
| CCCCn1cc[n+](C)c1.F[B-](F)(F)F [1-butyl-3-methylimidazolium tetrafluoroborate] | 71.63 ± 0.8 | 1191.3 ± 1.3 | 46.96 ± 0.5 | 1182.3 ± 1.2 | 23.8 ± 0.27 | 1166.7 ± 1.2 | 13.94 ± 0.18 | 1154.9 ± 1.2 | 11.32 ± 0.16 | 1139.4 ± 1.1 |  |
